From patent publication US20070225255A1, “Use of Mitochondrially Targeted Antioxidant in the Treatment of Liver Diseases and Epithelial Cancers” (priority 2004, published 2007)

Columns and labels:
hemoxygenase 1 (HO-1) = test: Western blot of hemoxygenase 1 in liver extracts of DDC intoxicated mice; format: in vivo, mouse; conditions: DDC 3 days, daily i.p. MitoQ in PBS/1% DMSO (112 nmol/kg), versus DDC intoxicated mice
Protocol: To evaluate hemoxygenase 1 (HO-1) protein expression know to be induced by oxidative stress (Suematsu M. and Ishimura Y., 2000, Hepatology, 31(1): 3-6) standard western blot analysis is performed using protein extracts derived from DDC intoxicated mice treated simultaneously for 3 days with MitoQ (diluted in 1% DMSO in PBS) or just vehicle itself (see protocols in Example 3).
Liver tissues are resuspended in ice-cold RIPA-buffer (50 mM Tris-HCl pH 7.4, 250 mM NaCl, 0.1% SDS, 1% deoxycholate, 1% NP-40) supplemented with 2 μg/ml leupeptin, 2 μg/ml pepstatin, 2 μg/ml aprotinin, 1 mM phenylmethylsulfonylfluoride (PMSF), and 2 mM dithiothreitol followed by homogenization through sonication (2 bursts of 5 seconds) on ice. After incubation for 20 minutes on ice, the lysates are cleared by two centrifugational steps in a microcentrifuge at 13 000 rpm for 15 minutes at 4° C. and the supernatants are collected. Protein concentrations are determined by the Bradford assay (Biorad) using bovine serum albumin as a standard. […] The intensities of the bands can be analysed densitometrically using ChemiImager 5500 software (Alpha Innotech) and each signal normalised to the intensity of the corresponding HO-2 (showing 7 fold reduction of HO-1 upon MitoQ treatment when compared to DDC intoxicated group of animals), or alternatively to β-actin.

HepG2 cells = test: ROS production (DCF fluorescence) in HepG2 cells, basal and CoCl2 stimulated; format: cell-based, human
Protocol: Alternatively, the generation of ROS is measured by using the fluoroprobe 5-(and-6)-chloromethyl-2′,7′-dichlorodihydrofluorescein diacetate acetyl ester (CM-H2DCFDA, Molecular Probes, Goettingen, Germany) which is converted to fluorescent dichlorofluorescien (DCF; Djordjevic T. et al., 2004, Antioxidants & Redox Signaling, 6: 713-720). To determine DCF fluorescence in a microplate reader (Tecan, Crailsheim, Germany), cells (e.g. HepG2, Hep3B or SNU-398) are grown in 96-well plates to 80% confluency. […] After several washes with HBSS to remove excess dye, fluorescence is monitored by using 480 nm excitation and 540 nm emission wavelength. DCF fluorescence is standardized to the number of viable cells using the Alamar Blue test according to the manufacturer's instructions (Biosource, Nivelles, Belgium). […] The absorbance is then measured at the wavelength of […].
In another experiment HepG2 stimulated by 100 μM CoCl2 (Sigma) are used (Bel Aiba R. S. et al., 2004,. Biol Chem. 385:249-57). […] The fluorescence is measured in a plate-reader (Tecan Safire) after 0, 10, 20 and 30 minutes (Djordjevic T, et al., 2005, Free Radic Biol Med. 38:616-30).

HUH-7 cells = test: ROS production induced by Antimycin A, lucigenin chemiluminescence assay; format: cell-based, human; conditions: Antimycin A 0, 1 and 5 μM, MitoQ 0 to 1000 nmol, 3 hours at 37° C.
Protocol: HUH-7 cells are incubated in 6 well plates and stimulated with Antimycin A in concentration 0-25 μM (0, 1 and 5 μM) simultaneously with or without MitoQ in concentration range from 0 to 1000 nmol dissolved in DMEM (Gibco) for 3 hours at 37° C. The light reaction between superoxide and lucigenin is detected. X axis represents a concentration range of MitoQ [nM] whereas y axis the chemiluminescence signal expressed as average counts per minute [cpm] after normalization to cell number determined by cell counter.
Another approach allows measurement of the ROS production induced by antimycin A or rotenone by using lucigenin chemiluminescence assay (experimental set up as in Example 9) in e.g. HUH-7 or Tib-73. HUH-7 cells are incubated in 6 well plates and stimulated by using antimycin A in concentration 0-25 μM (preferably 0, 1 and 5 μM) simultaneously with or without MitoQ (or MitoS) in concentration range from 0 to 1000 nmol dissolved in DMEM (Gibco) for 3 hours at 37° C. […] The light reaction between superoxide and lucigenin is detected using a chemiluminescence reader (Lumistar, BMG laboratories, Germany). The chemiluminescence signal is expressed as average counts per minute and normalized to cell number as determined by cell counter (Casy Technology Instrument, Schärfe-System, Germany).

MitoQ was tested, and the “reduction of HO-1 protein expression normalised to HO-2” value (hemoxygenase 1 (HO-1)) was 7 fold, the “CoCl2-stimulated ROS production (relative DCF fluorescence)” value (HepG2 cells; HepG2 cells, 100 μM CoCl2, 5 μM MitoQ) was “significantly decrease” and the “basal ROS production (relative DCF fluorescence)” value (HepG2 cells; unstimulated HepG2 cells, 5 μM MitoQ) was “significantly decrease”. The “ROS formation (lucigenin chemiluminescence)” value (HUH-7 cells) was “significant reduction in ROS formation”.
